# Experiments:
# [1] = test system: human acute monocytic leukemia cell line MV4-11; experiment: in vitro killing assay of anti-Ras bispecific antibody alone or in combination with DMSO (luciferase read-out); assay type: cell-based; conditions: alone, read-out: viability drop of MV4-11 cells
# Method: (§1) The anti-Ras bispecific antibody constructs SFV02_PCC06 (SEQ ID No 75 + 76) was tested in cell culture against the human Multiple Myeloma cell lines MM.1S and the human acute monocytic leukemia cell line MV4-11. The MM. 1S and MV4-11 cells are luziferase positive and were seeded into 96-well cell culture plates (for each cell line 7500 cells in 50 µL per well in 150 µL medium) in the corresponding medium (Table 1) and incubated at 37°C and 5% CO2 for 24 hours. The next day, fresh human CD3+/CD8+ T-cells were added to each well, for a final tumour cell to T cells ratio of 1 to 5. Two dilution series were prepared of the SFV02_PCC06 antibody: (i) A final concentration of 25 nM, 12.5 nM, 6.25 nM and 3.125 nM (Figure 15), and (ii) a final concentration of 15 nM, 7.5 nM, 3.75 nM, 1.87 nM, 0.93 nM, 0.46 nM, 0.23 nM and 0.11 nM (Figure 16). From the antibody dilution series, 20 µL was added to each respective well.
# (§2) To test if chemical compounds can improve and/or increase the bi-specific anti Ras antibody directed killing of tumours cells, two compounds were tested. […] Afterwards, the bioluminescence of the firefly-luciferase was measured, using a Tecan Spark plate reader (with an absorbance scan from 350 nm to 700 nm with an integration time interval of 1000 ms).
# [2] = test system: aberrant expressed Ras on the cell surface; experiment: cell-based ELISA of aberrant Ras protein on the cell surface under normal and stress conditions; parameters: species or system human; conditions: versus complete medium; for aberrant Ras expression on the cell surface: Lenalidomide 1.5µM overnight
# Method: For the cell-based ELISA, different adherent cell lines (AsPC-1, Panc-1, SK-BR-3 and BT-474) were used. First, the cell culture medium was removed, and the cells were washed one time with PBS. After washing, 2 ml of […] Trypsin-EDTA (Gibco, #25300054) was added to trypsinise the cells for 3 min at 37°C. Then, 13 ml of complete medium (Table 1) was added to stop the trypsinisation process. Cell numbers were count via Trypan Blue staining and 30.000 viable cells in 50 µl were seeded out per well, in a 96-well tissue culture plate at 37°C and 5% CO2. After overnight adhesion of the cells, three different mechanisms to induce cellular stress on the tumour cells were tested: (i) addition of 0,5% DMSO in the cell culture medium, (ii) adding 1,5 µM Lenalidomide in the cell culture medium, (iii) or replacement of the complete medium by cell culture medium without supplemented FBS for serum-starvation. As normal control, for cells not under additional cellular stress, cells were left in complete medium. The stress-induction was performed overnight at 37°C and 5% CO2. The next day, to reduce unspecific binding of detection antibody to the plastic of the cell culture plate, each well was filled up to the top with 50% FBS in PBS, carefully pipette on top of the incubation medium, and incubated for 30 minutes at 37°C. Then, the all medium was discarded from the wells and 50 µl of 1:100-diluted FcR Blocking Reagent (MACS Miltenyi #130-059-901) was added to each well to avoid unspecific binding by blocking of the Fc-Receptors on the tumour cells. […]
# The HRP-reaction was stopped after sufficient colour development by adding 50 µl of stop solution (1 N Sulfuric Acid) to each well. Finally, the absorbance was measured in each well at a wavelength of 450 nm and a reference wavelength of 630 nm with a Tecan SPARK® multimode-mikroplate-reader. The absorbance values from the unspecific HRP-labelled control samples (samples without primary antibody but with corresponding HRP labelled secondary antibody), were used for the zero baseline model and set at 0 (Figure 19 and 20).
# [3] = test system: human Multiple Myeloma cell lines MM.1S; experiment: in vitro killing assay of anti-Ras bispecific antibody alone or in combination with Lenalidomide (luciferase read-out); assay type: cell-based; conditions: MM1.S, Lenalidomide 1.5 µM alone, compared to the cells without Lenalidomide
# Method: as §1, §2
SMILES,viability drop at 70.4 µM [1] [%],"aberrant Ras protein on the cell surface ([2]; the four solid tumour cells (AsPC-1, Panc-1, MS-18, SK-BR-3), DMSO 0.5% (v/v))",aberrant Ras expression on the cell surface ([2]; AsPc-1 cells),aberrant Ras expression on the cell surface ([2]; SK-BR-3 cells),percent drop in cell viability at 1.5 µM [3] [%]
"C[S+](C)[O-] [DMSO, Dimethyl Sulfoxide]",30,down-regulating,,,
Nc1cccc2c1CN(C1CCC(=O)NC1=O)C2=O (centres unmarked) [Lenalidomide],,,up-regulating,up-regulating,25

# From patent publication EP4474016A1, “STRATEGIES TO TARGET EXTRACELLULARLY ACCESSIBLE RAS PROTEIN” (Julius-Maximilians-Universität Würzburg, priority 2023, dated 2024)
